Results as given in US20260364079A1 (Principia Biopharma Inc., priority 2022, published 2026).
“And” between values parts separate entries of the source, which are not always exact repeats. Equal values may be shown once.

Assay: phase 1/2 study in relapsed/refractory ITP (NCT03395210), safety
Conditions: for Time From Initial Treatment to Rescue Use: single patient
From the text: The Safety Population was used for all safety analyses.
Pre-existing conditions that worsened during a study were reported as AEs.
Safety was graded per NCI CTCAE, version 4.0.

[1] = treatment-related TEAE, any grade
[2] = treatment-related TEAE, grade 1
[3] = treatment-related TEAE, grade 2
[4] = treatment-related TEAE, grade 3/4

What does the source list for `CC(C)(C=C(C#N)C(=O)N1CCC[C@@H](n2nc(-c3ccc(Oc4ccccc4)cc3F)c3c(N)ncnc32)C1)N1CCN(C2COC2)CC1` (mixture of isomers) [rilzabrutinib, (R)-2-[3-[4-amino-3-(2-fluoro-4-phenoxy-phenyl)pyrazolo[3,4-d]pyrimidin-1-yl]piperidine-1-carbonyl]-4-methyl-4-[4-(oxetan-3-yl)piperazin-1-yl]pent-2-enenitrile]?
Rescue medication received but discontinued due to unrelated adverse events (in vivo): Two; TEAE leading to discontinuation: grade 3 GI hemorrhage (in vivo): 1 patient; TEAE leading to discontinuation: grade 4 Evans syndrome (in vivo): 1 patient; TEAE leading to discontinuation: grade 4 thrombocytopenia (in vivo): 1 patient; TEAE resulting in study drug discontinuation (in vivo): Seven; TEAE resulting in study drug discontinuation: administrative and site conditions (in vivo): 1 (2%) patients (%); TEAE resulting in study drug discontinuation: gastrointestinal (GI) disorders (in vivo): 4 (70%) patients (%); TEAE resulting in study drug discontinuation: lymphatic system disorders (in vivo): 2 (40%) patients (%); TEAEs leading to study drug discontinuation reported as serious adverse events (in vivo): Four; Use of rescue medication as cause of study discontinuation (in vivo): four; serious adverse events leading to discontinuation related to treatment (in vivo): none were related to rilzabrutinib treatment; toxicity across all doses (in vivo): only low-grade toxicity across all doses; treatment-related discontinuation: grade 1 fatigue (in vivo): 1 patient; treatment-related discontinuation: grade 2 GI disorders (in vivo): 2 patients; infections, thrombotic events, cardiac arrhythmias, liver toxicity, or increased bleeding (limited follow up time): no evidence of infections, thrombotic events, cardiac arrhythmias, liver toxicity, or increased bleeding; adverse events typically associated with BTK inhibitors (neutropenia, treatment-related infections, bleeding, thrombotic events, fungal infections, atrial fibrillation): no signs or symptoms of adverse events typically associated with BTK inhibitors; related treatment-emergent serious adverse events (open-label Phase 1/2 study in ITP): no related treatment-emergent serious adverse events; Time From Initial Treatment to Rescue Use (200 mg qd, baseline 24 × 10^9/L): Day 36; Time From Initial Treatment to Rescue Use (300 mg bid, baseline 3 × 10^9/L): Day 29; Time From Initial Treatment to Rescue Use (400 mg bid, baseline 18 × 10^9/L): Day 11; Abdominal discomfort [1]: 1 (2) number of patients (percent); Abdominal distension [1]: 4 (7) number of patients (percent); Abdominal pain [1]: 2 (3) number of patients (percent); Abnormal dreams [1]: 1 (2) number of patients (percent); Akathisia [1]: 1 (2) number of patients (percent); Alopecia [1]: — (represents zero events); Anemia [1]: — (represents zero events); Any TEAE [1]: 31 (52) number of patients (percent); Arthralgia [1]: — (represents zero events); Arthropod bite [1]: — (represents zero events); Back pain [1]: 1 (2) number of patients (percent); Conjunctival hemorrhage [1]: — (represents zero events); Contusion [1]: 1 (2) number of patients (percent); Costochondritis [1]: — (represents zero events); Cough [1]: — (represents zero events); Decreased appetite [1]: 1 (2) number of patients (percent); Defecation urgency [1]: 1 (2) number of patients (percent); Diarrhea [1]: 19 (32) number of patients (percent); Dizziness [1]: — (represents zero events); Dyspepsia [1]: 1 (2) number of patients (percent); Dyspnea [1]: — (represents zero events); Dyspnea exertional [1]: — (represents zero events); Edema [1]: 1 (2) number of patients (percent); Epigastric discomfort [1]: 1 (2) number of patients (percent); Epistaxis [1]: — (represents zero events); Erysipelas [1]: 1 (2) number of patients (percent); Fatigue [1]: 6 (10) number of patients (percent); Frequent bowel movements [1]: 1 (2) number of patients (percent); Headache [1]: 2 (3) number of patients (percent); Heavy menstrual bleeding [1]: — (represents zero events); Hypoesthesia [1]: 1 (2) number of patients (percent); Hypophosphatemia [1]: — (represents zero events); I lot flush [1]: 1 (2) number of patients (percent); Ilypokalemia [1]: 1 (2) number of patients (percent); Increased white blood cell count [1]: 1 (2) number of patients (percent); Maculo-papular rash [1]: 1 (2) number of patients (percent); Malaise [1]: 1 (2) number of patients (percent); Micturition urgency [1]: 1 (2) number of patients (percent); Muscle spasms [1]: 1 (2) number of patients (percent); Myalgia [1]: 1 (2) number of patients (percent); Nasal congestion [1]: — (represents zero events); Nasopharyngitis [1]: — (represents zero events); Nausea [1]: 18 (30) number of patients (percent); Peripheral swelling [1]: — (represents zero events); Petechiae [1]: — (represents zero events); Pruritus [1]: 2 (3) number of patients (percent); Purpura [1]: — (represents zero events); Rash [1]: 1 (2) number of patients (percent); Thrombocytopena [1]: — (represents zero events); Upper abdominal pain [1]: 2 (3) number of patients (percent); Upper respiratory tract infection [1]: — (represents zero events); Urinary tract infection [1]: — (represents zero events); Vomiting [1]: 3 (5) number of patients (percent); diarrhea [1]: 32%; fatigue [1]: 10%; nausea [1]: 30%; Abdominal discomfort [2]: 1 (2) number of patients (percent); Abdominal distension [2]: 4 (7) number of patients (percent); Abdominal pain [2]: — (represents zero events); Abnormal dreams [2]: 1 (2) number of patients (percent); Akathisia [2]: 1 (2) number of patients (percent); Alopecia [2]: — (represents zero events); Anemia [2]: — (represents zero events); Any TEAE [2]: 27 (45) number of patients (percent); Arthralgia [2]: — (represents zero events); Arthropod bite [2]: — (represents zero events); Back pain [2]: — (represents zero events); Conjunctival hemorrhage [2]: — (represents zero events); Contusion [2]: 1 (2) number of patients (percent); Costochondritis [2]: — (represents zero events); Cough [2]: — (represents zero events); Decreased appetite [2]: 1 (2) number of patients (percent); Defecation urgency [2]: — (represents zero events); Diarrhea [2]: 16 (27) number of patients (percent); Dizziness [2]: — (represents zero events); Dyspepsia [2]: 1 (2) number of patients (percent); Dyspnea [2]: — (represents zero events); Dyspnea exertional [2]: — (represents zero events); Edema [2]: 1 (2) number of patients (percent); Epigastric discomfort [2]: — (represents zero events); Epistaxis [2]: — (represents zero events); Erysipelas [2]: — (represents zero events); Fatigue [2]: 5 (8) number of patients (percent); Frequent bowel movements [2]: — (represents zero events); Headache [2]: 2 (3) number of patients (percent); Heavy menstrual bleeding [2]: — (represents zero events); Hypoesthesia [2]: — (represents zero events); Hypophosphatemia [2]: — (represents zero events); I lot flush [2]: — (represents zero events); Ilypokalemia [2]: 1 (2) number of patients (percent); Increased white blood cell count [2]: — (represents zero events); Maculo-papular rash [2]: 1 (2) number of patients (percent); Malaise [2]: 1 (2) number of patients (percent); Micturition urgency [2]: 1 (2) number of patients (percent); Muscle spasms [2]: 1 (2) number of patients (percent); Myalgia [2]: 1 (2) number of patients (percent); Nasal congestion [2]: — (represents zero events); Nasopharyngitis [2]: — (represents zero events); Nausea [2]: 16 (27) number of patients (percent); Peripheral swelling [2]: — (represents zero events); Petechiae [2]: — (represents zero events); Pruritus [2]: 1 (2) number of patients (percent); Purpura [2]: — (represents zero events); Rash [2]: 1 (2) number of patients (percent); Thrombocytopena [2]: — (represents zero events); Upper abdominal pain [2]: 1 (2) number of patients (percent); Upper respiratory tract infection [2]: — (represents zero events); Urinary tract infection [2]: — (represents zero events); Vomiting [2]: 2 (3) number of patients (percent); Abdominal discomfort [3]: — (represents zero events); Abdominal distension [3]: — (represents zero events); Abdominal pain [3]: 2 (3) number of patients (percent); Abnormal dreams [3]: — (represents zero events); Akathisia [3]: — (represents zero events); Alopecia [3]: — (represents zero events); Anemia [3]: — (represents zero events); Any TEAE [3]: 15 (25) number of patients (percent); Arthralgia [3]: — (represents zero events); Arthropod bite [3]: — (represents zero events); Back pain [3]: 1 (2) number of patients (percent); Conjunctival hemorrhage [3]: — (represents zero events); Contusion [3]: — (represents zero events); Costochondritis [3]: — (represents zero events); Cough [3]: — (represents zero events); Decreased appetite [3]: — (represents zero events); Defecation urgency [3]: 1 (2) number of patients (percent); Diarrhea [3]: 3 (5) number of patients (percent); Dizziness [3]: — (represents zero events); Dyspepsia [3]: — (represents zero events); Dyspnea [3]: — (represents zero events); Dyspnea exertional [3]: — (represents zero events); Edema [3]: — (represents zero events); Epigastric discomfort [3]: 1 (2) number of patients (percent); Epistaxis [3]: — (represents zero events); Erysipelas [3]: 1 number of patients (percent) and 1 (2) number of patients (percent); Fatigue [3]: 1 (2) number of patients (percent); Frequent bowel movements [3]: 1 (2) number of patients (percent); Headache [3]: — (represents zero events); Heavy menstrual bleeding [3]: — (represents zero events); Hypoesthesia [3]: 1 (2) number of patients (percent); Hypophosphatemia [3]: — (represents zero events); I lot flush [3]: 1 (2) number of patients (percent); Ilypokalemia [3]: — (represents zero events); Increased white blood cell count [3]: 1 (2) number of patients (percent); Maculo-papular rash [3]: — (represents zero events); Malaise [3]: — (represents zero events); Micturition urgency [3]: — (represents zero events); Muscle spasms [3]: — (represents zero events); Myalgia [3]: — (represents zero events); Nasal congestion [3]: — (represents zero events); Nasopharyngitis [3]: — (represents zero events); Nausea [3]: 2 (3) number of patients (percent); Peripheral swelling [3]: — (represents zero events); Petechiae [3]: — (represents zero events); Pruritus [3]: 1 (2) number of patients (percent); Purpura [3]: — (represents zero events); Rash [3]: — (represents zero events); Thrombocytopena [3]: — (represents zero events); Upper abdominal pain [3]: 1 (2) number of patients (percent); Upper respiratory tract infection [3]: — (represents zero events); Urinary tract infection [3]: — (represents zero events); Vomiting [3]: 1 (2) number of patients (percent); Abdominal discomfort [4]: — (represents zero events); Abdominal distension [4]: — (represents zero events); Abdominal pain [4]: — (represents zero events); Abnormal dreams [4]: — (represents zero events); Akathisia [4]: — (represents zero events); Alopecia [4]: — (represents zero events); Anemia [4]: — (represents zero events); Arthralgia [4]: — (represents zero events); Arthropod bite [4]: — (represents zero events); Back pain [4]: — (represents zero events); Conjunctival hemorrhage [4]: — (represents zero events); Contusion [4]: — (represents zero events); Costochondritis [4]: — (represents zero events); Cough [4]: — (represents zero events); Decreased appetite [4]: — (represents zero events); Defecation urgency [4]: — (represents zero events); Diarrhea [4]: — (represents zero events); Dizziness [4]: — (represents zero events); Dyspepsia [4]: — (represents zero events); Dyspnea [4]: — (represents zero events); Dyspnea exertional [4]: — (represents zero events); Edema [4]: — (represents zero events); Epigastric discomfort [4]: — (represents zero events); Epistaxis [4]: — (represents zero events); Erysipelas [4]: — (represents zero events); Fatigue [4]: — (represents zero events); Frequent bowel movements [4]: — (represents zero events); Headache [4]: — (represents zero events); Heavy menstrual bleeding [4]: — (represents zero events); Hypoesthesia [4]: — (represents zero events); Hypophosphatemia [4]: — (represents zero events); I lot flush [4]: — (represents zero events); Ilypokalemia [4]: — (represents zero events); Increased white blood cell count [4]: — (represents zero events); Maculo-papular rash [4]: — (represents zero events); Malaise [4]: — (represents zero events); Micturition urgency [4]: — (represents zero events); Muscle spasms [4]: — (represents zero events); Myalgia [4]: — (represents zero events); Nasal congestion [4]: — (represents zero events); Nasopharyngitis [4]: — (represents zero events); Nausea [4]: — (represents zero events); Peripheral swelling [4]: — (represents zero events); Petechiae [4]: — (represents zero events); Pruritus [4]: — (represents zero events); Purpura [4]: — (represents zero events); Rash [4]: — (represents zero events); Thrombocytopena [4]: — (represents zero events); Upper abdominal pain [4]: — (represents zero events); Upper respiratory tract infection [4]: — (represents zero events); Urinary tract infection [4]: — (represents zero events); Vomiting [4]: — (represents zero events); grade 1 candida infection (unrelated to treatment): ‡Other infections and infestations not listed in the table that were unrelated to treatment and that occurred in a single patient each included grade 1 candida infection, fungal skin infection, and osteomyelitis; and grade 2 infected skin ulcer and oral herpes.; patient deaths (unrelated to treatment, 400 mg bid discontinued day 8, died 135 days after initiating): 1 patient
